Assay results reported in patent US20120252721A1 (priority 2011, published 2012).

Assays:
[1] = test system: HCV genotype 1b Con1 strain subgenomic luciferase replicon (Zluc); test: Luciferase replicon assay, genotype 1b; format: cell-based; details: Hepatitis C virus
Procedure: (§1) The HCV luciferase replicon assay measures the ability of a test compound to inhibit HCV replication in cell culture after 3 days of treatment in a human hepatoma cell line (Huh-7) bearing an HCV replicon containing a luciferase-neomycin phosphotransferase fusion gene. The inhibition of HCV replication was measured by quantification of luciferase protein expression. Briefly, Huh-7 cells containing either the HCV genotype 1a H77 strain or genotype 1b Con1 strain subgenomic luciferase replicon (H1a-luc or Zluc, respectively) were grown in DMEM containing glucose, L-glutamine and sodium pyruvate, 10% fetal bovine serum (FBS), 100 IU/mL penicillin, 100 μg/mL streptomycin, 2 mM GlutaMAX, non-essential amino acids and 0.25 (H1a-luc) or 0.5 (Zluc) mg/mL G418. GlutaMAX was obtained from Invitrogen, Corp.; all other media reagents were obtained from Mediatech, Inc. For dose-response testing, the cells were seeded in 96-well plates at 1×10^4 (H1a-luc) or 7.5×10^3 (Zluc) cells/well in a volume of 50 μL, and incubated at 37° C./5% CO2. Three hours after plating, 50 μL of ten 5-fold serial dilutions of compound were added, and cell cultures were incubated at 37° C./5% CO2 for 72 hours. In all cases, Huh-7 cells lacking the HCV replicon served as negative control. To assess luciferase expression, the media/compound was removed from the plates and ONE-glo Luciferase assay reagent (Promega) was added to each well. The assay plates were shaken for 3 minutes at room temperature and luciferase activity for each well was measured with a 1 sec read time on the Victor^3V multilabel counter using a 700 nm cut-off filter (Perkin Elmer). EC50 values were calculated from dose response curves from the resulting best-fit equations determined by Microsoft Excel and XLfit 4.1 software.

HCV genotype 2a = test: Genotype 2a assay (NS5A-intergenotypic luciferase replicon / genotype 2a infectious virus assay); format: cell-based; details: Hepatitis C virus, read-out: EC50 2a
From the text: (§2) The nucleotide sequences of the NS5A region of genotype 2a (GenBank Accession # AB047639), genotype 3a (GenBank Accession #D17763), and genotype 4a (GenBank Accession# DQ418788) were synthesized by an outside vendor. The NS5A region of each of these genotypes included the first 11 amino acids of the protease recognition sequence of genotype 1b, as well as the last 10 amino acids of genotype 1b. The NS5A gene cassettes were excised with site specific restriction endonucleases and ligated into a ZS11-luciferase genotype 1b backbone (backbone contains the genotype 1b NS3 protease, NS4a, NS4b, and NS5b coding regions) with similarly cut restriction enzyme sites. Thus, the newly constructed plasmid contains a genotype 2a-, 3a- or 4a-specific NS5A gene within the 1b-replicon.
(§3) These new intergenotypic plasmids were used to establish stable cell lines. RNA was generated from the NS5A intergenotypic plasmids and used in conjunction with a lipofectin reagent to transfect a cured Huh7 cell line. Transfected cells were selected for with G418. After selection has occurred the stable cell lines were propagated, tested for luciferase activity, and RT-PCR with genotype specific primers (either 1a, 2a, 3a, or 4a). Stable cell lines containing the intergenotypic replicon were then fully sequenced and analyzed for proper expression of NS3, NS5A and NS5B proteins.
(§4) Drug titration analysis was performed using the luciferase replicon assay described herein.
The genotype 2a infectious virus assay measures the ability of a test compound to inhibit HCV replication in cell culture after 5 days of treatment at the time of HCV genotype 2a virus infection of a permissive human hepatoma cell line (HPC cells). The inhibition of HCV replication was measured by quantification of HCV core protein expression by an enzyme-linked immunosorbent assay (ELISA). Briefly, HPC cells were grown in DMEM containing glucose, L-glutamine and sodium pyruvate, 10% FBS, 100 IU/mL penicillin, 100 μg/mL streptomycin, 2 mM GlutaMAX, and non-essential amino acids. GlutaMAX was obtained from Invitrogen, Corp.; all other media reagents were obtained from Mediatech, Inc. For dose-response testing, ninety-six-well plates were seeded with HPC cells at a density of 2.5×10^3 cells/well in a volume of 50 μL, and incubated at 37° C./5% CO2. Three hours after plating, 50 μL of ten 5-fold serial dilutions of compound and 100 μL of genotype 2a virus were added, and cell cultures were incubated at 37° C./5% CO2. In all cases, mock infected HPC cells served as negative control. At 16 hours post treatment and infection, the virus inoculum was removed by aspiration. The cultures were treated at the same final concentrations of drug diluted in media and incubated for 4 additional days at 37° C./5% CO2. Subsequently, the core ELISA was performed as follows. The plates were fixed for 90 seconds with acetone/methanol (1:1, v/v), washed three times with KPL wash solution (KPL, Inc.), blocked for 1 hr at room temperature with TNE buffer containing 10% FBS and then incubated for 2 hr at 37° C. with the anti-HCV core mouse monoclonal antibody (Thermo Scientific) diluted in the same buffer. After washing three times with KPL wash solution, the cells were incubated for 1 hr at 37° C. with an anti-mouse immunoglobulin G-peroxidase conjugate in TNE/10% FBS. After washing as described above, the reaction was developed with O-phenylenediamine (Invitrogen). The reaction was stopped after 30 min with 2 NH2SO4, and absorbance was read at 490 nm in a Victor^3V 1420 multilabel counter (Perkin Elmer) and EC50 concentrations were determined using Microsoft Excel and XLfit 4.1 software.
The HCV luciferase replicon assay measures the ability of a test compound to inhibit HCV replication in cell culture after 3 days of treatment in a human hepatoma cell line (Huh-7) bearing an HCV replicon containing a luciferase-neomycin phosphotransferase fusion gene. […]

[2] = test system: HCV genotype 3a NS5A within the 1b-replicon; test: Luciferase replicon assay, NS5A-intergenotypic stable cell line genotype 3a; format: cell-based; details: Hepatitis C virus, read-out: EC50 3a
From the text: as §2, §3, §4, §1

[3] = test system: HCV genotype 4a NS5A within the 1b-replicon; test: Luciferase replicon assay, NS5A-intergenotypic stable cell line genotype 4a; format: cell-based; details: Hepatitis C virus, read-out: EC50 4a
From the text: as §2, §3, §4, §1

[4] = test system: HCV genotype 1a H77 strain subgenomic luciferase replicon (H1a-luc); test: Luciferase replicon assay, genotype 1a; format: cell-based; details: Hepatitis C virus, read-out: EC50 1a
Procedure: as §4, §1

H1a-luc or Zluc cells = test: in vitro; format: cell-based, human; details: Table 1B, cellular viability
Procedure: (§5) For cytotoxicity evaluation, HPC cells were treated with compounds as described above in the absence of the genotype 2a virus and cellular viability was monitored using the Cell Titer 96 AQueous One Solution Cell Proliferation Assay (Promega). Plates were then read at 490 nm in a Victor^3V 1420 multilabel counter (Perkin Elmer) and CC50 concentrations were determined using Microsoft Excel and XLfit 4.1 software.
as §5, with “H1a-luc or Zluc” for “HPC”, “above” for “above in the absence of the genotype 2a virus”

[5] = test system: HCV Con1 subgenomic replicon (GS4.1 cells); test: HCV replicon assay (NS5A ELISA, 72 hrs); format: cell-based; details: Hepatitis C virus
Procedure: Huh-7 cells containing HCV Con1 subgenomic replicon (GS4.1 cells) were grown in Dulbecco's Modified Eagle Medium (DMEM) supplemented with 10% fetal bovine serum (FBS), 2 mM L-glutamine, 110 mg/L sodium pyruvate, 1× non-essential amino acids, 100 U/mL penicillin-streptomycin, and 0.5 mg/mL G418 (Invitrogen). For dose-response testing, the cells were seeded in 96-well plates at 7.5×10^3 cells/well in a volume of 50 μL, and incubated at 37° C./5% CO2. Three hours after plating, 50 μL often 2-fold serial dilutions of compounds (highest concentration, 75 μM) were added, and cell cultures were incubated at 37° C./5% CO2 in the presence of 0.5% DMSO. Alternatively, compounds were tested at a single concentration of 15 μM. In all cases, Huh-7 cells lacking the HCV replicon served as negative control. The cells were incubated in the presence of compounds for 72 hrs after which they were monitored for expression of the NS5A protein by enzyme-linked immunosorbent assay (ELISA). For this, the plates were then fixed for 1 min with acetone/methanol (1:1, v/v), washed twice with phosphate-buffered saline (PBS), 0.1% Tween 20, blocked for 1 hr at room temperature with TNE buffer containing 10% FBS and then incubated for 2 hr at 37° C. with the anti-NS5A mouse monoclonal antibody A-236 (ViroGen) diluted in the same buffer. After washing three times with PBS, 0.1% Tween 20, the cells were incubated 1 hr at 37° C. with anti-mouse immunoglobulin G-peroxidase conjugate in TNE, 10% FBS. After washing as described above, the reaction was developed with O-phenylenediamine (Zymed). The reaction was stopped after 30 min with 2 NH2SO4, and absorbance was read at 492 nm using Sunrise Tecan spectrophotometer. EC50 values were determined from the % inhibition versus concentration data using a sigmoidal non-linear regression analysis based on four parameters with Tecan Magellan software.

in vitro = format: cell-based; details: human; GS4.1 cells, cellular viability
Procedure: For cytotoxicity evaluation, GS4.1 cells were treated with compounds as described above and cellular viability was monitored using the Cell Titer 96 AQeous One Solution Cell Proliferation Assay (Promega). CC50 values were determined from the % cytotoxicity versus concentration data with Tecan Magellan software as described above.

Structure (SMILES) | EC50 [1] [µM] | EC50 (HCV genotype 2a) [µM] | EC50 [2] [µM] | EC50 [3] [µM] | EC50 [4] [µM] | CC50 (H1a-luc or Zluc cells) [µM] | EC50 [5] [µM] | CC50 (in vitro) [µM]
COC(=O)N[C@H](C(=O)N1CCCC1c1nc(-c2cc3sc(-c4cnc([C@@H]5CCCN5C(=O)[C@@H](NC(=O)OC)C(C)C)[nH]4)cc3s2)c[nH]1)C(C)C (stereo partly shown) [Compound A101] | < 0.0001 | 0.001 to 0.01 | 0.001 to 0.01 | 0.001 to 0.01 | 0.01 to 0.1 | > 75 |  | 
COC(=O)N[C@H](C(=O)N1CCC[C@H]1c1ncc(-c2ccc(-c3cc4sc(-c5cnc([C@@H]6CCCN6C(=O)[C@@H](NC(=O)OC)C(C)C)[nH]5)cc4s3)cc2)[nH]1)C(C)C [Compound A126, [(S)-1-((S)-2-{5-[4-(5-{2-[(S)-1-((S)-2-Methoxycarbonylamino-3-methyl-butyryl)-pyrrolidin-2-yl]-3H-imidazol-4-yl}-thieno[3,2-b]thiophen-2-yl)-phenyl]-1H-imidazol-2-yl}-pyrrolidine-1-carbonyl)-2-methyl-propyl]-carbamic acid methyl ester] | < 0.0001 |  | 0.001 to 0.01 |  | < 0.0001 | > 75 | < 0.001 | > 75
COC(=O)N[C@H](C(=O)N1CCC[C@H]1c1ncc(-c2ccc(-c3csc4c(-c5ccc6[nH]c([C@@H]7CCCN7C(=O)[C@@H](NC(=O)OC)C(C)C)nc6c5)csc34)cc2)[nH]1)C(C)C [Compound A171, [(S)-1-((S)-2-{4-[4-(6-{2-[(S)-1-((S)-2-methoxycarbonylamino-3-methyl-butyryl)-pyrrolidin-2-yl]-3H-benzoimidazol-5-yl}-thieno[3,2-b]thiophen-3-yl)-phenyl]-1H-imidazol-2-yl}-pyrrolidine-1-carbonyl)-2-methyl-propyl]-carbamic acid methyl ester] | < 0.0001 |  | 0.001 to 0.01 |  | < 0.0001 | > 75 |  | 
COC(=O)N[C@H](C(=O)N1CCC[C@H]1c1ncc(-c2csc3c(-c4ccc5[nH]c([C@@H]6CCCN6C(=O)[C@@H](NC(=O)OC)C(C)C)nc5c4)csc23)[nH]1)C(C)C [Compound A173, ((S)-1-{(S)-2-[6-(6-{(S)-2-[1-((S)-2-methoxycarbonylamino-3-methyl-butyryl)-pyrrolidin-2-yl]-1H-imidazol-4-yl}-thieno[3,2-b]thiophen-3-yl)-1H-benzoimidazol-2-yl]-pyrrolidine-1-carbonyl}-2-methyl-propyl)-carbamic acid methyl ester] | < 0.0001 | 0.001 to 0.01 | 0.001 to 0.01 | 0.001 to 0.01 | 0.01 to 0.1 | 10 to 75 |  | 
